PMC6627609, “Targeting Quorum Sensing: High-Throughput Screening to Identify Novel LsrK Inhibitors” (International Journal of Molecular Sciences, 2019)
Where a name gives a salt, the structure may show the parent alone.

Target: LsrK (Salmonella typhimurium, UniProt Q8ZKQ6)
Assay: biochemical
Assay type: biochemical, S. typhimurium
Conditions: not given

Sequence of LsrK (Q8ZKQ6 whole entry): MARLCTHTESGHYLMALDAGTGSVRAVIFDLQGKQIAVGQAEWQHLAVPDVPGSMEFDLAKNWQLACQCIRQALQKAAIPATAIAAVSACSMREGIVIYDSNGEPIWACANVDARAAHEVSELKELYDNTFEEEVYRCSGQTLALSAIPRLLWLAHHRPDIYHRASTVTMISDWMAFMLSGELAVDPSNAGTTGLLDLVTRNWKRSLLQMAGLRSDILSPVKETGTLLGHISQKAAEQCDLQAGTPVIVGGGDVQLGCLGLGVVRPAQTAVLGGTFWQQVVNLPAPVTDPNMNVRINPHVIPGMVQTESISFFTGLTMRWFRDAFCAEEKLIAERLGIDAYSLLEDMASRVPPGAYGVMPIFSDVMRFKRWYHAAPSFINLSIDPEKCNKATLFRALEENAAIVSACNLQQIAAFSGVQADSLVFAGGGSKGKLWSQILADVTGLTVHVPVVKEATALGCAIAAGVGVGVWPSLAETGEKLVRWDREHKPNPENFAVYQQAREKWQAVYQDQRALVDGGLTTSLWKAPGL

Compound	inhibition at 50 µM
Cc1c(OCC(F)(F)F)ccnc1C[S+]([O-])c1nc2ccccc2[nH]1 (stereo not shown) [LANSOPRAZOLE]	33%
CC(C)=CCC1=C(O)C(=O)c2ccccc2C1=O [LAPACHOL]	1%
Cc1cc(OC(=O)c2c(C)cc(O)cc2O)cc(O)c1C(=O)O [LECANORIC ACID]	0%
COC(=O)c1c(C)c2c(c(C)c1O)OC(=O)c1c(C)c(Cl)c(O)c(Cl)c1O2 [LEOIDIN]	83%
Nc1nc2c(c(=O)[nH]1)N(C=O)C(CNc1ccc(C(=O)N[C@@H](CCC(=O)O)C(=O)O)cc1)CN2 (stereo partly shown) [LEUCOVORIN CALCIUM]	5%
CC(C)(C)NC[C@H](O)c1ccc(O)c(CO)c1 [LEVALBUTEROL HYDROCHLORIDE]	8%
c1ccc([C@H]2CN3CCSC3=N2)cc1 [LEVAMISOLE HYDROCHLORIDE]	1%
N[C@@H](Cc1ccc(O)c(O)c1)C(=O)O [LEVODOPA]	77%
C[C@H](N)[C@H](O)c1ccc(O)c(O)c1 [LEVONORDEFRIN]	123%
CCC[C@@H]1C[C@@H](C(=O)N[C@@H]([C@H]2O[C@H](SC)[C@H](O)[C@@H](O)[C@H]2O)[C@@H](C)O)N(C)C1 [LINCOMYCIN HYDROCHLORIDE]	0%
CCCCCc1c2c(cc(O)c1C(=O)O)OC(=O)c1c(cc(OC)cc1C(=O)CCCC)O2 [LOBARIC ACID]	98%
CN1[C@@H](CC(=O)c2ccccc2)CCC[C@H]1C[C@H](O)c1ccccc1 [LOBELINE HYDROCHLORIDE]	1%
CCn1cc(C(=O)O)c(=O)c2cc(F)c(N3CCNC(C)C3)c(F)c21 (stereo not shown) [LOMEFLOXACIN HYDROCHLORIDE]	0%
CCOC(=O)N1CCC(=C2c3ccc(Cl)cc3CCc3cccnc32)CC1 [LORATADINE]	2%
O=C(NC(=O)c1c(F)cccc1F)Nc1cc(Cl)c(OC(F)(F)C(F)C(F)(F)F)cc1Cl (stereo not shown) [LUFENURON]	2%
O=C(O)CCC1NCC2CC1CN1CCCCC21 (stereo not shown) [LUPANYL ACID HYDROCHLORIDE]	1%
NCc1ccc(S(N)(=O)=O)cc1 [MAFENIDE HYDROCHLORIDE]	1%
O=c1c2cc(O)c(O)cc2oc2cc(O)c([C@@H]3O[C@H](CO)[C@@H](O)[C@H](O)[C@H]3O)c(O)c12 [MANGIFERIN]	14%
COC(=O)Nc1nc2ccc(C(=O)c3ccccc3)cc2[nH]1 [MEBENDAZOLE]	1%
CCN(CCCCOC(=O)c1ccc(OC)c(OC)c1)C(C)Cc1ccc(OC)cc1 (stereo not shown) [MEBEVERINE HYDROCHLORIDE]	1%
Cc1ccc(Cl)c(Nc2ccccc2C(=O)O)c1Cl [MECLOFENAMATE SODIUM]	6%
COC(=O)C(N)CS (stereo not shown) [MECYSTEINE HYDROCHLORIDE]	112%

Compound	inhibition at 50 µM
CC(=O)O[C@]1(C(C)=O)CC[C@H]2[C@@H]3C[C@H](C)C4=CC(=O)CC[C@]4(C)[C@H]3CC[C@@]21C [MEDROXYPROGESTERONE ACETATE]	1%
Cc1cccc(Nc2ccccc2C(=O)O)c1C [MEFENAMIC ACID]	1%
OC(c1cc(C(F)(F)F)nc2c(C(F)(F)F)cccc12)C1CCCCN1 (stereo not shown) [MEFLOQUINE]	32%
CNC[C@H](O)[C@@H](O)[C@H](O)[C@H](O)CO [MEGLUMINE]	1%
COc1ccc2[nH]cc(CCNC(C)=O)c2c1 [MELATONIN]	1%
C=C1C[C@H]2[C@@H]3C=C(C)C4=CC(=O)CC[C@]4(C)[C@H]3CC[C@]2(C)[C@@]1(OC(C)=O)C(C)=O [MELENGESTROL ACETATE]	1%
OC[C@H]1O[C@@](CO)(O[C@H]2O[C@H](CO)[C@@H](O)[C@H](O)[C@H]2O)[C@@H](O[C@H]2O[C@H](CO)[C@@H](O)[C@H](O)[C@H]2O)[C@@H]1O [MELEZITOSE]	2%
Cc1cnc(NC(=O)C2=C(O)c3ccccc3S(=O)(=O)N2C)s1 [MELOXICAM SODIUM]	0%
C[N+]1(C)CCCC(OC(=O)C(O)(c2ccccc2)c2ccccc2)C1 (stereo not shown) [MEPENZOLATE BROMIDE]	3%
Cc1ccccc1OCC(O)CO (stereo not shown) [MEPHENESIN]	1%
Cc1cccc(C)c1NC(=O)C1CCCCN1C (stereo not shown) [MEPIVACAINE HYDROCHLORIDE]	15%
S=c1[nH]cnc2nc[nH]c12 [MERCAPTOPURINE]	1%
Nc1ccc(O)c(C(=O)O)c1 [MESALAMINE]	105%
CC(=O)Nc1cccc(O)c1 [METACETAMOL]	1%
CC(C)NCC(O)c1cc(O)cc(O)c1 (stereo not shown) [METAPROTERENOL]	3%
C[C@H](N)[C@H](O)c1cccc(O)c1 [METARAMINOL BITARTRATE]	9%
Cc1cc(C)cc(OCC2CNC(=O)O2)c1 (stereo not shown) [METAXALONE]	0%
CN1C[C@H](CNC(=O)OCc2ccccc2)C[C@@H]2c3cccc4c3c(cn4C)C[C@H]21 [METERGOLINE]	3%
C=C1c2cccc(O)c2C(=O)C2=C(O)[C@]3(O)C(=O)C(C(N)=O)=C(O)[C@@H](N(C)C)[C@@H]3[C@@H](O)[C@H]12 [METHACYCLINE HYDROCHLORIDE]	97%
C1N2CN3CN1CN(C2)C3 [METHENAMINE]	2%
COc1cccc(OC)c1C(=O)N[C@@H]1C(=O)N2[C@@H]1SC(C)(C)[C@@H]2C(=O)O [METHICILLIN SODIUM]	1%
COC(=O)c1cc(O)c(=O)c2c(O)c(O)ccc2c1 [METHYL 7-DESHYDROXYPYROGALLIN-4-CARBOXYLATE]	112%

Compound	inhibition at 50 µM
COC(=O)c1c(C)cc(O)cc1O [METHYL ORSELLINATE]	0%
COc1c2c(cc3occ(-c4ccc5c(c4)OCO5)c(=O)c13)OC(C)(C)C=C2 [METHYL ROBUSTONE]	1%
CN(C)c1ccc2nc3ccc(=[N+](C)C)cc-3sc2c1 [METHYLENE BLUE]	3%
CC[C@@H](CO)NC(=O)[C@@H]1C=C2c3cccc4[nH]cc(c34)C[C@H]2N(C)C1 [METHYLERGONOVINE MALEATE]	1%
Cc1cc(=O)[nH]c(=S)[nH]1 [METHYLTHIOURACIL]	4%
Cc1ccccc1N1C(=O)c2cc(S(N)(=O)=O)c(Cl)cc2NC1C (stereo not shown) [METOLAZONE]	1%
Cc1ncc([N+](=O)[O-])n1CCO [METRONIDAZOLE]	0%
CN(C)c1ccc(O)c2c1C[C@H]1C[C@H]3[C@H](N(C)C)C(O)=C(C(N)=O)C(=O)[C@@]3(O)C(O)=C1C2=O [MINOCYCLINE HYDROCHLORIDE]	71%
CO[C@@]12[C@H](COC(N)=O)C3=C(C(=O)C(C)=C(N)C3=O)N1C[C@@H]1N[C@@H]12 [MITOMYCIN C]	0%
NC(=O)C[S+]([O-])C(c1ccccc1)c1ccccc1 (stereo not shown) [MODAFINIL]	1%
CCOC(=O)[N-]c1cn(N2CCOCC2)n[o+]1 [MOLSIDOMINE]	0%
C[C@H]1C(=O)O[C@@H]2CCN3CC=C(COC(=O)[C@](C)(O)[C@]1(C)O)[C@H]23 [MONOCROTALINE]	111%
Cc1ccsc1/C=C/C1=NCCCN1C [MORANTEL CITRATE]	0%
O=c1c(O)c(-c2ccc(O)cc2O)oc2cc(O)cc(O)c12 [MORIN]	154%
CO[C@@]1(NC(=O)C(C(=O)O)c2ccc(O)cc2)C(=O)N2C(C(=O)O)=C(CSc3nnnn3C)CO[C@@H]21 (stereo partly shown) [MOXALACTAM DISODIUM]	1%
COc1c(-c2coc3cc4c(cc3c2=O)CC(O)C(C)(C)O4)ccc2c1C=CC(C)(C)O2 (stereo not shown) [MUNDULONE]	0%
CC1=CC2C(CC1=O)C(C)=CCC2C(C)C (stereo not shown) [MUUROLLADIE-3-ONE]	1%
COc1c(C)c2c(c(O)c1C/C=C(\C)CCC(=O)O)C(=O)OC2 [MYCOPHENOLIC ACID]	1%
c1cncc(C2=NCCC2)c1 [MYOSMINE]	2%
O=c1c(O)c(-c2cc(O)c(O)c(O)c2)oc2cc(O)cc(O)c12 [MYRICETIN]	14%
CCOc1ccc2ccccc2c1C(=O)N[C@@H]1C(=O)N2[C@@H]1SC(C)(C)[C@@H]2C(=O)O [NAFCILLIN SODIUM]	23%
COc1ccc2cc([C@H](C)CO)ccc2c1 [NAPROXOL]	0%

Same assay, conditions: 50 µM

Compound	Inhibition (%)
CC(=O)O[C@H]1CC[C@]2(C)C3=C(CC[C@H]2C1(C)C)[C@]1(C)CC[C@H]([C@H](C)CCC=C(C)C)[C@@]1(C)CC3 [LANOSTEROL ACETATE]	1
Cc1occc(=O)c1O [LARIXINIC ACID]	1
C=C[C@@](C)(O)CC[C@H]1C(=C)C[C@H](OC(C)=O)[C@H]2C(C)(C)CCC[C@]12C [LARIXOL ACETATE]	3
C=C[C@@](C)(O)CC[C@H]1C(=C)C[C@H](O)[C@H]2C(C)(C)CCC[C@]12C [LARIXOL]	1
OC[C@H]1O[C@H](OCC2O[C@@H](O)[C@H](O)[C@@H](O)[C@@H]2O)[C@H](O)[C@@H](O)[C@H]1O (stereo partly shown) [MELIBIOSE]	3
O=C([O-])c1ccccc1-c1c2cc(Br)c(=O)cc-2oc2[c]([Hg+])c([O-])c(Br)cc12.[Na+].[Na+].[OH-] [MERBROMIN]	119
C=N[C@@H](C(=O)N[C@@H]1C(=O)N2[C@@H]1SC(C)(C)[C@@H]2C(=O)[O-])c1ccccc1.[Na+] [METAMPICILLIN SODIUM]	2
Cc1cc(C(C)(C)CC(C)(C)C)ccc1OCCOCC[N+](C)(C)Cc1ccccc1.[Cl-] [METHYLBENZETHONIUM CHLORIDE]	89
COc1cc(OC)c(C(C)=O)c(OC)c1 [METHYLXANTHOXYLIN]	4
Cl.Cl.O=C1c2c(O)ccc(O)c2C(=O)c2c(NCCNCCO)ccc(NCCNCCO)c21 [MITOXANTHRONE HYDROCHLORIDE]	2
CC(=O)Oc1cc(C(C)C)c(OCCN(C)C)cc1C.Cl [MOXISYLYTE HYDROCHORIDE]	2
CNCc1ccccc1.Cl [N-METHYLBENZYLAMINE HYDROCHLORIDE]	0
NC(N)=NC(=O)c1nc(Cl)c(N2CCCCCC2)nc1N [N.N-HEXAMETHYLENEAMILORIDE]	1
